Patent US6489475B2, “Method of producing heterocyclic derivatives” (Sankyo Company, Limited, priority 1994, dated 2002)
Marks after values point to notes of the source that are not given here.

Columns and labels:
Male Wister rats = assay: Serum total cholesterol reducing effect in rats on high cholesterol feed; assay type: in vivo; details: oral, once a day for 3 days, rat
Experimental: Serum Total Cholesterol Reducing Effect
Male Wister rats weighing 180-200 g were bred under free access to a high cholesterol feed [added with cholesterol (1%), cholic acid (0.5%) and coconut oil (10%), Clea Japan, Inc.] for 3 days, during which period a test compound (10-100 mg/kg) suspended in 5% gum arabic solution was forcibly administered once a day orally for 3 days. Only 5% gum arabic solution was administered to control animals. After final administration, the test animals were fasted for 5 hours and the blood was taken. The serum total cholesterol level was determined using a commercially available assay kit (cholesterol-E-Test Wako, Wako Pure Chemical Industries, Ltd.). The activity of the test compound was expressed as a proportion (%) of reduction of serum total cholesterol level, namely, the proportion of reduction of serum total cholesterol as compared to control.

ACAT = ACAT inhibitory activity (small intestine mucosa microsomes, [1-14C]-oleoyl CoA, cholesteryl oleate production); assay type: biochemical, rabbit; details: concentration 10^-5M; inhibition of cholesteryl oleate production vs control
Experimental: A high cholesterol feed [a feed added with cholesterol (1%), Clea Japan, Inc.] was fed to male Japanese white rabbits weighing 2-2.5 kg at 100 g per day and the rabbits were bred for 4 weeks. The rabbits were killed by bleeding under anesthesia and small intestine was removed. The mucous membrane of small intestine was peeled, collected and homogenated. The homogenate was centrifuged at 4° C. and 10,000 rpm for 15 min. The obtained supernatant was further centrifuged at 4° C. and 41,000 rpm for 30 minutes to give microsomal fractions. Using this microsomal suspension as an enzyme sample, dimethyl sulfoxide (DMSO, 5 μl) or a test compound dissolved in DMSO (test compound solution, 5 μl), and a reaction substrate [1-^14C]-oleoyl CoA were added to a reaction buffer. After incubation at 37° C. for 5 minutes, a chloroform-methanol mixture was added to stop the reaction. Water was added thereto and mixed, and chloroform layer was separated. The solvent was evaporated to dryness, and the residue was dissolved in hexane. The mixture was subjected to thin layer chromatography using a silica gel plate. The spots of cholesteryl oleate on the silica gel plate were scraped, and quantitatively assayed on a liquid scintillation counter. The ACAT inhibitory activity of the test compound was expressed as a proportion (%) of inhibition of cholesteryl oleate, namely, the proportion of inhibition of cholesteryl oleate production as compared to control.

plasma = assay: Plasma lipoperoxidation inhibitory effect (copper sulfate, malondialdehyde by thiobarbituric acid method); assay type: biochemical, rabbit; details: concentration 10^-5M; 37°C, 3 hours; malondialdehyde production inhibitory ratio
Experimental: Plasma Lipoperoxidation Inhibitory Effect
The blood was taken from male Japanese white rabbits weighing 2-2.5 kg under anesthesia and heparinized plasma was separated by a conventional method. To the plasma (2.0 ml) was added DMSO or a solution (20 μl, final concentration 10^−5 M) of test compound dissolved in DMSO, and aqueous copper sulfate solution (final concentration 5 mM) was added immediately thereafter. The mixture was incubated at 37° C. for 3 hours. After the completion of the incubation, 20% trichloroacetic acid was added to stop the reaction. Then, the mixture was centrifuged at 4° C., 4,500 rpm for 15 minutes. The lipoperoxide in the supernatant thus obtained was assayed as malondialdehyde upon color development by thiobarbituric acid method. The activity of the test compound was expressed as malondialdehyde production inhibitory ratio (%), namely, the proportion of inhibition of production of malondialdehyde as compared to control.

LDL = LDL peroxidation inhibitory effect (copper sulfate, malondialdehyde by thiobarbituric acid method); assay type: biochemical, rabbit; details: concentration 10^-5M; 37°C, 24 hours; malondialdehyde production inhibitory ratio
Experimental: LDL Peroxidation Inhibitory Effect
Male Japanese white rabbits weighing 2-2.5 kg were bred on 100 g per day of a high cholesterol feed [added with cholesterol (1%), Clea Japan, Inc.] for 4 weeks. The blood was taken from carotid and plasma was obtained. Then, LDL was fractionated from the plasma by ultracentrifugation, dialyzed for one day and preserved at 4° C. LDL (400 μg) and aqueous copper sulfate solution (final concentration 5 μM) were added to bufferized Ham F-10 medium (2 ml, GIBCO, USA). DMSO or a solution (20 μl) of test compound dissolved in DMSO was added and the mixture was incubated at 37° C. for 24 hours. After the completion of the incubation, LDL peroxide in medium was allowed to develop color by thiobarbituric acid method and assayed as malondialdehyde. The activity of the test compound was expressed as malondialdehyde production inhibitory ratio (%), namely, the proportion of inhibition of production of malondialdehyde as compared to control.

Compound	Result of Exp. Ex. 2: reduction of serum total cholesterol (Male Wister rats; dose 30 mg/kg/day)	Result of Exp. Ex. 1: ACAT inhibition (ACAT)	Result of Exp. Ex. 4: plasma lipoperoxidation inhibition (plasma)	Result of Exp. Ex. 3: LDL peroxidation inhibition (LDL)	Result of Exp. Ex. 2: reduction of serum total cholesterol (Male Wister rats; dose 10 mg/kg/day)	Result of Exp. Ex. 2: reduction of serum total cholesterol (Male Wister rats; dose 100 mg/kg/day)
Cc1cc(C)c(NC(=O)C(C)(C)C)c2c1CCN2CCCCCC(=O)O [Example 26]	37.4 ** %	26.5 ** %	90.1%	43.3%		
CCCCCCN1CCc2c(C)cc(C)c(NC(=O)C(C)(C)CCCC)c21 [Example 14]	53.9 ** %	96.6 ** %	93.1%	88.3%		
CC(C)(Sc1cc(C(C)(C)C)c(O)c(C(C)(C)C)c1)Sc1cc(C(C)(C)C)c(O)c(C(C)(C)C)c1 [Probucol, 4,4′-isopropylidenedithiobis(2,6-di-t-butylphenol), reference compound]		3.4 ** %	87.5%	89.4%	7.3 * %	
CCCCCCN1CCc2c1cc(C)c(NC(=O)NCCCC)c2C [Example 1, 1-butyl-3-(1-hexyl-4,6-dimethylindolin-5-yl)urea]		76.6 ** %	94.3%	99.2%		12.9 *** %
CCCCCCC(C)(C)C(=O)Nc1c(C)cc(C)c2c1N(CCCC)CC2 [Example 10]	55.2 ** %	98.7 ** %	82.6%	18.3%		
CCCCCCN1CCc2c(OC)cc(OC)c(NC(=O)C(C)(C)C)c21 [Example 7]	19.2 ** %	96.2 ** %	86.4%	86.6%		
CCCCCCN1CCc2c(C)cc(C)c(NC(=O)NCCCC)c21 [Example 4, 1-butyl-3-(1-hexyl-4,6-dimethylindolin-7-yl)urea]	21.4 ** %	94.9 ** %	92.0%	59.5%		
CCCCCCN1CCc2c(C)cc(C)c(NC(=O)CCCC)c21 [Example 21]		94.4 ** %	91.4%	92.1%	28.3 * %	
CCCCCCN1CCc2c(C)cc(C)c(NC(=O)C(C)(C)COCC)c21 [Example 34]	50.2 ** %	91.0 ** %	89.8%	82.9%		
COCCN1CCc2c(C)cc(C)c(NC(=O)C(C)(C)C)c21 [Example 23]	23.6 ** %	88.8 ** %	90.5%	54.8%		
CCCCCCN1CCc2c(C)cc(C)c(NC(=O)C(C)C)c21 [Example 17]		96.7 ** %	91.1%	89.6%	27.0 * %	
CCCCCCN1CCc2c(C)cc(C)c(NC(=O)C(C)(C)CO)c21 [Example 28]		79.4 ** %	91.1%	92.2%		20.8 *** %
CCCCCCCCN1CCc2c(C)cc(C)c(NC(=O)C(C)(C)C)c21 [Example 11]		99.2 ** %	78.8%	91.6%	59.5 * %	
